The series can be described thus: physchem. The class given is physicochemical. The protocol:
Measurement of Log P values as provided herein was performed according to EEC directive 79/831 Annex V.A8 by HPLC (High Performance Liquid Chromatography) on reversed phase columns with the following methods: • ^[a]
If more than one Log P value is available within the same method, all the values are given and separated by “+”.
Lambda-max-values were determined using UV-spectra from 200 nm to 400 nm and the peak values of the chromatographic signals
In the case of `Cc1ccc(Cl)c(CC2CON=C(c3cc(Cl)ncc3Oc3cccc(Cl)c3F)N2)c1` (racemic) [Compound I-118], the LogP is 4.52^[a]. The figure for `Cc1ccc(CC2CON=C(c3cc(Cl)ncc3Oc3ccc4ccsc4c3)N2)c(C)c1` (racemic) [Compound I-119] is 4.59^[a]. Under `Cc1ccc(CC2CON=C(c3cc(Cl)ncc3Oc3ccc(OC(F)(F)F)cc3)N2)c(C)c1` (racemic) [Compound I-120] stands 4.76^[a].

As to `CSc1c(Cl)ncc(Oc2cccc(C(F)(F)F)c2)c1C1=NOCC(Cc2ccc(C)cc2C)N1` (racemic) [Compound I-121], the LogP was 4.67^[a].

In the case of `Cc1ccc(CC2CON=C(c3c(Oc4cccc(C(F)(F)F)c4)cnc(Cl)c3C)N2)c(C)c1` (racemic) [Compound I-124], the LogP is 4.55^[a]. On to `FC(F)(F)c1cncc(Oc2cnc(Cl)cc2C2=NOCC(Cc3ccc(Cl)cc3Cl)N2)c1` (racemic) [Compound I-125], for which the LogP was 3.71^[a]. The figure for `COCCOc1cccc(Oc2cnc(Cl)cc2C2=NOCC(Cc3ccc(C)cc3C)N2)c1` (racemic) [Compound I-126] is 4.15^[a]. Under `Cc1ccc(CC2CON=C(c3cc(Cl)nc(Cl)c3Oc3cccc(C(F)(F)F)c3)N2)c(C)c1` (racemic) [Compound I-127] stands 5.08^[a]; under `FC(F)(F)c1cccc(Oc2cnc(Cl)cc2C2=NOCC(Cc3ccc(Cl)cc3Cl)N2)n1` (racemic) [Compound I-128], 4.44^[a]. Regarding `COCCOc1c(Cl)ncc(Oc2cccc(C(F)(F)F)c2)c1C1=NOCC(Cc2ccc(C)cc2C)N1` (racemic) [Compound I-129], the LogP is 4.51^[a]. Under `Cc1ccc(CC2CON=C(c3cc(Cl)ncc3Oc3cccc(Cl)c3)N2)c(C)c1` (single isomer, unassigned) [Compound I-011] stands 4.53^[a]; under `Cc1ccc(CC2CON=C(c3cc(Cl)ncc3Oc3cccc(Cl)c3)N2)c(C)c1` (single isomer, unassigned) [Compound I-012], 4.53^[a]; under `Cc1ccc(CC2CON=C(c3cc(Cl)ncc3Oc3cccc(C4CC4)c3)N2)c(C)c1` (single isomer, unassigned) [Compound I-019], 4.89^[a].

Regarding `Cc1ccc(CC2CON=C(c3cc(Cl)ncc3Oc3cccc(C4CC4)c3)N2)c(C)c1` (single isomer, unassigned) [Compound I-020], the LogP is 4.89^[a]. For the molecule `Cc1ccc(CC2CON=C(c3cc(Cl)ncc3Oc3cccc(C4CC4)c3F)N2)c(C)c1` (single isomer, unassigned) [Compound I-021], the LogP is 4.93^[a]. In the case of `Cc1ccc(CC2CON=C(c3cc(Cl)ncc3Oc3cccc(C4CC4)c3F)N2)c(C)c1` (single isomer, unassigned) [Compound I-022], the LogP is 4.93^[a]. The figure for `O=C(NC(CON1C(=O)c2ccccc2C1=O)Cc1ccc(Br)cc1Cl)c1cc(Cl)ncc1Oc1cccc(C2CC2)c1` (stereo not drawn) [3-02] is 5.75^[a]; for `O=C(NC(CON1C(=O)c2ccccc2C1=O)Cc1ccc(Cl)cc1Cl)c1cc(Cl)ncc1Oc1cccc(C2CC2)c1` (stereo not drawn) [3-03] it is 5.62^[a]; for `O=C(NC(CON1C(=O)c2ccccc2C1=O)Cc1ccc(Cl)cc1Cl)c1cc(Cl)ncc1Oc1cccc(C2CC2)c1F` (stereo not drawn) [3-04] it is 5.54^[a].

Consider `O=C(NC(CON1C(=O)c2ccccc2C1=O)Cc1ccc(Br)cc1Cl)c1cc(Cl)ncc1Oc1cccc(C2CC2)c1F` (stereo not drawn) [3-05], for which the LogP is 5.62^[a].

As for `Cc1ccc(CC(CON2C(=O)c3ccccc3C2=O)NC(=O)c2cc(Cl)ncc2Oc2cccc(C3CC3)c2F)c(C)c1` (stereo not drawn) [3-06], the LogP was 5.38^[a]. The figure for `Cc1cccc(Oc2cnc(Cl)cc2C(=O)NC(CON2C(=O)c3ccccc3C2=O)Cc2ccc(C)cc2C)c1` (stereo not drawn) [3-07] is 5.16^[a]. As to `COc1cccc(Oc2cnc(Cl)cc2C(=O)NC(CON2C(=O)c3ccccc3C2=O)Cc2ccc(Br)cc2Cl)c1` (stereo not drawn) [3-08], the LogP was 5.05^[a]. Regarding `COc1cccc(Oc2cnc(Cl)cc2C(=O)NC(CON2C(=O)c3ccccc3C2=O)Cc2ccc(C)cc2C)c1` (stereo not drawn) [3-09], the LogP was 4.80^[a]. For the molecule `O=C(NC(CON1C(=O)c2ccccc2C1=O)Cc1ccc(Br)cc1Cl)c1cc(Cl)ncc1Oc1cccc(C(F)F)c1` (stereo not drawn) [3-10], the LogP was 5.00^[a]. Under `Cc1ccc(CC(CON2C(=O)c3ccccc3C2=O)NC(=O)c2cc(Cl)ncc2Oc2cccc(C(F)F)c2)c(C)c1` (stereo not drawn) [3-11] stands 4.69^[a]; under `Cc1ccc(CC(CON2C(=O)c3ccccc3C2=O)NC(=O)c2cc(Cl)ncc2Oc2cccc(Cl)c2)c(C)c1` (stereo not drawn) [3-12], 5.11^[a]. Under `Cc1ccc(CC(CON2C(=O)c3ccccc3C2=O)NC(=O)c2cc(Cl)ncc2Oc2cccc(C(F)(F)F)c2)c(C)c1` (stereo not drawn) [3-13] stands 5.20^[a]; under `NOCC(Cc1ccc(Br)cc1Cl)NC(=O)c1cc(Cl)ncc1Oc1cccc(C2CC2)c1` (stereo not drawn) [4-02], 4.15^[a]; under `NOCC(Cc1ccc(Cl)cc1Cl)NC(=O)c1cc(Cl)ncc1Oc1cccc(C2CC2)c1` (stereo not drawn) [4-03], 4.06^[a]. In the case of `NOCC(Cc1ccc(Cl)cc1Cl)NC(=O)c1cc(Cl)ncc1Oc1cccc(C2CC2)c1F` (stereo not drawn) [4-04], the LogP is 3.96^[a]. The figure for `NOCC(Cc1ccc(Br)cc1Cl)NC(=O)c1cc(Cl)ncc1Oc1cccc(C2CC2)c1F` (stereo not drawn) [4-05] is 4.08^[a]. Under `Cc1ccc(CC(CON)NC(=O)c2cc(Cl)ncc2Oc2cccc(C3CC3)c2F)c(C)c1` (stereo not drawn) [4-06] stands 3.72^[a]; under `Cc1cccc(Oc2cnc(Cl)cc2C(=O)NC(CON)Cc2ccc(C)cc2C)c1` (stereo not drawn) [4-07], 3.37^[a]; under `COc1cccc(Oc2cnc(Cl)cc2C(=O)NC(CON)Cc2ccc(Br)cc2Cl)c1` (stereo not drawn) [4-08], 3.39^[a].

Turning to `COc1cccc(Oc2cnc(Cl)cc2C(=O)NC(CON)Cc2ccc(C)cc2C)c1` (stereo not drawn) [4-09], the LogP was 3.08^[a]. The figure for `NOCC(Cc1ccc(Br)cc1Cl)NC(=O)c1cc(Cl)ncc1Oc1cccc(C(F)F)c1` (stereo not drawn) [4-10] is 3.46^[a].

As for `Cc1ccc(CC(CON)NC(=O)c2cc(Cl)ncc2Oc2cccc(C(F)F)c2)c(C)c1` (stereo not drawn) [4-11], the LogP is 3.09^[a]. Under `Cc1ccc(CC(CON)NC(=O)c2cc(Cl)ncc2Oc2cccc(Cl)c2)c(C)c1` (stereo not drawn) [4-12] stands 3.35^[a]; under `Cc1ccc(CC(CCN)NC(=O)c2cc(Cl)ncc2Oc2cccc(C(F)(F)F)c2)c(C)c1` (stereo not drawn) [4-13], 2.41^[a]; under `Cc1ccc(CC(CCNC(c2ccccc2)(c2ccccc2)c2ccccc2)NC(=O)c2cc(Cl)ncc2Oc2cccc(C(F)(F)F)c2)c(C)c1` (stereo not drawn) [4-14], 5.35^[a]. Under `Cc1ccc(CC2CON=C(c3cc(Cl)ncc3Br)N2)c(C)c1` (stereo not drawn) [7-01] stands 3.31^[a]; under `Clc1ccc(CC2CON=C(c3cc(Cl)ncc3Br)N2)c(Cl)c1` (stereo not drawn) [7-04], 3.45^[a].

Take `Cc1ccc(CC2CON=C(c3cc(Cl)ncc3Br)N2)c(Cl)c1` (stereo not drawn) [7-05]: the LogP was 3.38^[a]. As for `Cc1cc(Cl)ccc1CC1CON=C(c2cc(Cl)ncc2Br)N1` (stereo not drawn) [7-06], the LogP was 3.44^[a]. For the molecule `Cc1cccc(CC2CON=C(c3cc(Cl)ncc3Br)N2)c1Cl` (stereo not drawn) [7-07], the LogP is 3.44^[a]. Regarding `Cc1ccc(Cl)c(CC2CON=C(c3cc(Cl)ncc3Br)N2)c1` (stereo not drawn) [7-09], the LogP was 3.46^[a]. Under `Cc1ccc(CC(N)CC(N)=O)c(C)c1` (stereo not drawn) [13-09] stands 0.69^[a]; under `Cc1ccc(CC(CCl)NC(=O)c2c(Oc3cccc(C(F)(F)F)c3)cnc(Cl)c2F)c(C)c1` (stereo not drawn) [14-01], 5.03^[a]; under `Cc1ccc(CC(CCl)NC(=O)c2cc(Cl)ncc2Oc2cccc(C(F)(F)F)c2)c(C)c1` (stereo not drawn) [14-02], 5.32^[a]. The figure for `Cc1ccc(CC(CCl)NC(=O)c2cc(Cl)ncc2Oc2cccc(C(F)(F)F)c2)cc1` (stereo not drawn) [14-03] is 5.00^[a]. Under `Cc1ccc(CC(CCl)NC(=O)c2c(Oc3cccc(C(F)(F)F)c3)cnc(Cl)c2I)c(C)c1` (stereo not drawn) [14-04] stands 5.18^[a]; under `COc1cc(C(=O)NC(CCl)Cc2ccc(C)cc2C)c(Oc2cccc(C(F)(F)F)c2)cn1` (stereo not drawn) [14-05], 5.26^[a]; under `Cc1ccc(CC(CCl)NC(=O)c2cc(Cl)nc(F)c2Oc2cccc(C(F)(F)F)c2)c(C)c1` (stereo not drawn) [14-06], 5.45^[a]. With `Cc1ccc(CC(CCl)NC(=O)c2cc(Cl)nc(Cl)c2Oc2cccc(C(F)(F)F)c2)c(C)c1` (stereo not drawn) [14-07], the LogP was 5.45^[a]. For `Cc1cc(Br)ccc1CC(CCl)NC(=O)c1cc(Cl)ncc1Oc1cccc(C(F)(F)F)c1` (stereo not drawn) [14-08], the LogP is 5.31^[a]. Take `O=C(NC(CCl)Cc1ccc(C(F)(F)F)cc1Cl)c1cc(Cl)ncc1Oc1cccc(C(F)(F)F)c1` (stereo not drawn) [14-09]: the LogP was 5.36^[a]. In the case of `O=C(NC(CCl)Cc1csc(C(F)(F)F)c1)c1cc(Cl)ncc1Oc1cccc(C(F)(F)F)c1` (stereo not drawn) [14-10], the LogP is 4.96^[a]. The figure for `O=C(NC(CCl)Cc1csc(Cl)c1)c1cc(Cl)ncc1Oc1cccc(C(F)(F)F)c1` (stereo not drawn) [14-11] is 4.96^[a]. The figure for `Cc1ccc(C(CCl)NC(=O)c2cc(Cl)ncc2Oc2cccc(C(F)(F)F)c2)cc1` (stereo not drawn) [14-12] is 4.49^[a]; for `Cc1ccc(CC(CCl)NC(=NO)c2c(Oc3cccc(C(F)(F)F)c3)cnc(Cl)c2F)c(C)c1` (stereo not drawn) [16-01] it is 5.74^[a]; for `Cc1ccc(CC(CCl)NC(=NO)c2cc(Cl)ncc2Oc2cccc(C(F)(F)F)c2)c(C)c1` (stereo not drawn) [16-03] it is 4.80^[a]. Under `Cc1ccc(CC(CCl)NC(=NO)c2cc(Cl)ncc2Oc2cccc(C(F)(F)F)c2)cc1` (stereo not drawn) [16-04] stands 4.59^[a]; under `Cc1ccc(CC(CCl)NC(=NO)c2c(Oc3cccc(C(F)(F)F)c3)cnc(Cl)c2I)c(C)c1` (stereo not drawn) [16-05], 5.28^[a]; under `Cc1ccc(CC(CCl)NC(=NO)c2cc(Cl)nc(F)c2Oc2cccc(C(F)(F)F)c2)c(C)c1` (stereo not drawn) [16-06], 5.16^[a]. Regarding `Cc1ccc(CC(CCl)NC(=NO)c2cc(Cl)nc(Cl)c2Oc2cccc(C(F)(F)F)c2)c(C)c1` (stereo not drawn) [16-07], the LogP was 5.35^[a].

(Values after patent US12534456B2, “Heterocyclyl pyridines as novel fungicides” (Bayer Aktiengesellschaft, priority 2020, dated 2026).)
